Assay results taken from patent US9499550B2 (BRISTOL-MYERS SQUIBB COMPANY, priority 2012, dated 2016).
Read-outs that look alike come from different tables or passages of the source.

How the values were obtained:
[1] = tested on: HCV genotype 1a (H77 strain) replicon in HUH-7 cells; assay: HCV replicon luciferase reporter assay, genotype 1a; format: cell-based; conditions: Hepatitis C virus, Huh-7, 72 h, 3 days incubation
Procedure, shortened: (§1)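 Replicon inhibition for both genotypes was measured as Renilla luciferase signal (EnduRen, 7.5 μM final, 2 h) after 3-day, 37° C exposure of replicon-bearing HUH-7 cells in 4% FCS DMEM, 0.5% DMSO. The 1b construct carries S1179I; the 1a H77 construct carries P1496L and S2204I. Twenty-point, 3-fold dilutions were fitted four-parametrically for EC50, and CC50 was taken from multiplexed Cell Titer-Blue.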

[2] = tested on: HCV genotype 1b (Con1) replicon in HUH-7 cells; assay: HCV replicon luciferase reporter assay, genotype 1b; format: cell-based; conditions: Hepatitis C virus, Huh-7, 72 h, 3 days incubation
Procedure, shortened: as §1

[3] = HCV genotype 1a replicon luciferase, read-out: LE_1a (EC50)
[4] = HCV genotype 1a replicon luciferase, read-out: LE_1a (EC50, range)
[5] = HCV genotype 1b replicon luciferase, read-out: LE_1b (EC50)
[6] = HCV genotype 1b replicon luciferase, read-out: LE_1b (EC50, range)
[7] = HCV genotype 1a replicon luciferase assay, range class, read-out: LE_1a (EC50, range)
[8] = HCV genotype 1b replicon luciferase assay, range class, read-out: LE_1b (EC50, range)
[9] = GETYPE1A, HCV genotype 1a replicon luciferase, read-out: LE_1a (EC50, range)
[10] = GETYPE1B, HCV genotype 1b replicon luciferase, read-out: LE_1b (EC50, range)

Compound | EC50 [1, 4] | EC50 [2, 6] | also measured
C[C@@H]1CC/C=C\[C@@H]2C[C@@]2(C(=O)NS(=O)(=O)C2(C)CC2)NC(=O)[C@@H]2C[C@@H](Oc3nccc4c5c(ccc34)N(C)CCO5)CN2C(=O)[C@@H](NC(=O)C(=O)N(C)C)[C@H](C)C1 [Compound 5306, N1-((2R,6S,7R,9R,13aS,14aR,16aS,Z)-7,9-dimethyl-2-((4-methyl-3,4-dihydro-2H-[1,4]oxazino[2,3-f]isoquinolin-7-yl)oxy)-14a-(((1-methylcyclopropyl)sulfonyl)carbamoyl)-5,16-dioxo-1,2,3,5,6,7,8,9,10,11,13a,14,14a,15,16,16a-hexadecahydrocyclopropa[e]pyrrolo[1,2-a][1,4]diazacyclopentadecin-6-yl)-N2,N2-dimethyloxalamide] | < 5.46 nM | < 5.46 nM | EC50 [1, 3]: 2.97 nM; EC50 [2, 5]: 2.45 nM
COc1cc(F)cc2c(O[C@@H]3C[C@H]4C(=O)N[C@]5(C(=O)NS(=O)(=O)C6(C)CC6)C[C@H]5/C=C\CC[C@H](C)C[C@@H](C)[C@H](NC(=O)O[C@H](C)C(F)(F)F)C(=O)N4C3)nccc12 [Compound 3157, (R)-1,1,1-trifluoropropan-2-yl ((2R,6S,7R,9S,13aS,14aR,16aS,Z)-2-((7-fluoro-5-methoxyisoquinolin-1-yl)oxy)-7,9-dimethyl-14a-(((1-methylcyclopropyl)sulfonyl)carbamoyl)-5,16-dioxo-1,2,3,5,6,7,8,9,10,11,13a,14,14a,15,16,16a-hexadecahydrocyclopropa[e]pyrrolo[1,2-a][1,4]diazacyclopentadecin-6-yl)carbamate] |  |  | EC50 [1, 7]: 4.82 to 103 nM; EC50 [2, 8]: < 5.46 nM
COc1ccc2c(O[C@@H]3C[C@H]4C(=O)N[C@]5(C(=O)NS(=O)(=O)C6CC6)C[C@H]5/C=C\CC[C@@H](C)C[C@@H](C)[C@H](NC(=O)OC(C)(C)C(C)(F)F)C(=O)N4C3)nc(-c3ccc4c(c3)OCCO4)cc2c1 [Compound 5241, 3,3-difluoro-2-methylbutan-2-yl((2R,6S,7R,9R,13aS,14aR,16aS,Z)-14a-((cyclopropylsulfonyl)carbamoyl)-2-((3-(2,3-dihydrobenzo[b][1,4]dioxin-6-yl)-6-methoxyisoquinolin-1-yl)oxy)-7,9-dimethyl-5,16-dioxo-1,2,3,5,6,7,8,9,10,11,13a,14,14a,15,16,16a-hexadecahydrocyclopropa[e]pyrrolo[1,2-a][1,4]diazacyclopentadecin-6-yl)carbamate] | < 5.46 nM | < 5.46 nM | 
COc1cc2cc(-c3ccc(OC(C)C)cc3)nc(O[C@@H]3C[C@H]4C(=O)N[C@]5(C(=O)NS(=O)(=O)C6CC6)C[C@H]5/C=C\CC[C@@H](C)C[C@@H](C)[C@H](NC(=O)OC(C)(C)C(F)(F)F)C(=O)N4C3)c2cc1F [Compound 3190, 1,1,1-trifluoro-2-methylpropan-2-yl((2R,6S,7R,9R,13aS,14aR,16aS,Z)-14a-((cyclopropylsulfonyl)carbamoyl)-2-((7-fluoro-3-(4-isopropoxyphenyl)-6-methoxyisoquinolin-1-yl)oxy)-7,9-dimethyl-5,16-dioxo-1,2,3,5,6,7,8,9,10,11,13a,14,14a,15,16,16a-hexadecahydrocyclopropa[e]pyrrolo[1,2-a][1,4]diazacyclopentadecin-6-yl)carbamate] | < 5.46 nM | < 5.46 nM | 
CCOc1ccc2c(O[C@@H]3C[C@H]4C(=O)N[C@]5(C(=O)NS(=O)(=O)C6CC6)C[C@H]5/C=C\CC[C@H](C)C[C@@H](C)[C@H](NC(=O)OC(C)(C)C)C(=O)N4C3)nccc2c1 [Compound 5127, tert-butyl ((2R,6S,7R,9S,13aS,14aR,16aS,Z)-14a-((cyclopropylsulfonyl)carbamoyl)-2-((6-ethoxyisoquinoline-1-yl)oxy)-7,9-dimethyl-5,16-dioxo-1,2,3,5,6,7,8,9,10,11,13a,14,14a,15,16,16a-hexadecahydrocyclopropa[e]pyrrolo[1,2-a][1,4]diazacyclopentadecin-6-yl)carbamate] | < 5.46 nM | < 5.46 nM | 
COc1ccc2c(O[C@@H]3C[C@H]4C(=O)N[C@]5(C(=O)NS(=O)(=O)C6CC6)C[C@H]5/C=C\CC[C@H](C)C[C@@H](C)[C@H](NC(=O)O[C@@H]5C[C@@H]6C[C@@H]6C5)C(=O)N4C3)nc(-c3ccc(OC)c(F)c3)cc2c1 [Compound 3057, (1R,3r,5S)-bicyclo[3.1.0]hexan-3-yl((2R,6S,7R,9S,13aS,14aR,16aS,Z)-14a-((cyclopropylsulfonyl)carbamoyl)-2-((3-(3-fluoro-4-methoxyphenyl)-6-methoxyisoquinolin-1-yl)oxy)-7,9-dimethyl-5,16-dioxo-1,2,3,5,6,7,8,9,10,11,13a,14,14a,15,16,16a-hexadecahydrocyclopropa[e]pyrrolo[1,2-a][1,4]diazacyclopentadecin-6-yl)carbamate] |  |  | EC50 [1, 7]: < 5.46 nM; EC50 [2, 8]: < 5.46 nM
CCOc1cc2ccnc(O[C@@H]3C[C@H]4C(=O)N[C@]5(C(=O)NS(=O)(=O)C6(C)CC6)C[C@H]5/C=C\CC[C@@H](C)C[C@@H](C)[C@H](NC(=O)OC(C)(C)C(F)(F)F)C(=O)N4C3)c2cc1F [Compound 5395, 1,1,1-trifluoro-2-methylpropan-2-yl((2R,6S,7R,9R,13aS,14aR,16aS,Z)-2-((6-ethoxy-7-fluoroisoquinolin-1-yl)oxy)-7,9-dimethyl-14a-(((1-methylcyclopropyl)sulfonyl)carbamoyl)-5,16-dioxo-1,2,3,5,6,7,8,9,10,11,13a,14,14a,15,16,16a-hexadecahydrocyclopropa[e]pyrrolo[1,2-a][1,4]diazacyclopentadecin-6-yl)carbamate] | 1.01 to 5 nM | 0.51 to 1 nM | 
COc1ccc2c(O[C@@H]3C[C@H]4C(=O)N[C@]5(C(=O)NS(=O)(=O)C6CC6)C[C@H]5/C=C\CC[C@@H](C)C[C@@H](C)[C@H](NC(=O)OC(C)(C)C)C(=O)N4C3)nccc2c1 [Compound 1205, tert-butyl ((2R,6S,7R,9R,13aS,14aR,16aS,Z)-14a-((cyclopropylsulfonyl)carbamoyl)-2-((6-methoxyisoquinolin-1-yl)oxy)-7,9-dimethyl-5,16-dioxo-1,2,3,5,6,7,8,9,10,11,13a,14,14a,15,16,16a-hexadecahydrocyclopropa[e]pyrrolo[1,2-a][1,4]diazacyclopentadecin-6-yl)carbamate] | 0.51 to 1 nM | 0.51 to 1 nM | EC50 [1, 3]: 0.62 nM; EC50 [2, 5]: 0.75 nM
CCn1nc(O[C@@H]2C[C@H]3C(=O)N[C@]4(C(=O)NS(=O)(=O)C5CC5)C[C@H]4/C=C\CC[C@@H](C)C[C@@H](C)[C@H](NC(=O)O[C@@H]4C[C@@H]5C[C@@H]5C4)C(=O)N3C2)c2ccccc2c1=O [Compound 5070, (1R,3r,5S)-bicyclo[3.1.0]hexan-3-yl((2R,6S,7R,9R,13aS,14aR,16aS,Z)-14a-((cyclopropylsulfonyl)carbamoyl)-2-((3-ethyl-4-oxo-3,4-dihydrophthalazin-1-yl)oxy)-7,9-dimethyl-5,16-dioxo-1,2,3,5,6,7,8,9,10,11,13a,14,14a,15,16,16a-hexadecahydrocyclopropa[e]pyrrolo[1,2-a][1,4]diazacyclopentadecin-6-yl)carbamate] | 4.82 to 103 nM | < 5.46 nM | 
CCOc1ccc2nc(C(F)(F)F)c(O[C@@H]3C[C@H]4C(=O)N[C@]5(C(=O)NS(=O)(=O)C6(C)CC6)C[C@H]5/C=C\CC[C@H](C)C[C@@H](C)[C@H](NC(=O)OC(C)(C)C(F)(F)F)C(=O)N4C3)nc2c1 [Compound 4349] |  |  | EC50 [1, 9]: 5.01 to 35 nM; EC50 [2, 10]: 1.01 to 5 nM
C[C@@H]1CC/C=C\[C@@H]2C[C@@]2(C(=O)NS(=O)(=O)C2(C)CC2)NC(=O)[C@@H]2C[C@@H](Oc3nc4c(c5ccccc35)CCCO4)CN2C(=O)[C@@H](NC(=O)OC(C)(C)C(C)(F)F)[C@H](C)C1 [Compound 6048, 3,3-difluoro-2-methylbutan-2-yl((2R,6S,7R,9R,13aS,14aR,16aS,Z)-2-((2,3-dihydro-1H-pyrano[2,3-c]isoquinolin-6-yl)oxy)-7,9-dimethyl-14a-(((1-methylcyclopropyl)sulfonyl)carbamoyl)-5,16-dioxo-1,2,3,5,6,7,8,9,10,11,13a,14,14a,15,16,16a-hexadecahydrocyclopropa[e]pyrrolo[1,2-a][1,4]diazacyclopentadecin-6-yl)carbamate] | 1.01 to 5 nM | 0.1 to 0.5 nM | 
COc1ccc2ncc(O[C@@H]3C[C@H]4C(=O)N[C@]5(C(=O)NS(=O)(=O)C6(CF)CC6)C[C@H]5/C=C\CC[C@@H](C)C[C@@H](C)[C@H](NC(=O)OC(C)(C)C(F)(F)F)C(=O)N4C3)nc2c1 [Compound 4088] |  |  | EC50 [1, 9]: < 5.46 nM; EC50 [2, 10]: < 5.46 nM
COc1cc(F)cc2c(O[C@@H]3C[C@H]4C(=O)N[C@]5(C(=O)NS(=O)(=O)C6(C)CC6)C[C@H]5/C=C\CC[C@@H](C)C[C@@H](C)[C@H](NC(=O)O[C@@H]5C[C@@H]6C[C@@H]6C5)C(=O)N4C3)nccc12 [Compound 3160, (1R,3r,5S)-bicyclo[3.1.0]hexan-3-yl((2R,6S,7R,9R,13aS,14aR,16aS,Z)-2-((7-fluoro-5-methoxyisoquinolin-1-yl)oxy)-7,9-dimethyl-14a-(((1-methylcyclopropyl)sulfonyl)carbamoyl)-5,16-dioxo-1,2,3,5,6,7,8,9,10,11,13a,14,14a,15,16,16a-hexadecahydrocyclopropa[e]pyrrolo[1,2-a][1,4]diazacyclopentadecin-6-yl)carbamate] |  |  | EC50 [1, 7]: < 5.46 nM; EC50 [2, 8]: < 5.46 nM
